Data: patent US11076594B2, “Pyrazolone compound or salt thereof, preparation method therefor, herbicide composition and use thereof” (QINGDAO KINGAGROOT CHEMICAL COMPOUNDS CO., LTD., priority 2015, dated 2021)

Legend:
Assay type in all cases: in vivo
wheat [1] = assay: post-emergence stage experiment, crop (Table 1); details: post-emergence spray at 4-5 leaf stage, 250 g/ha active ingredient with 450 kg/ha water, rated after 3 weeks in greenhouse
Procedure, shortened: (§1)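 Greenhouse pot test; foliar spray at 4-5 leaf stage; acetone + Tween 80 + water formulation; 3 wk post-treatment fresh-weight control rate.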

corn = assay: post-emergence stage experiment, crop (Table 1); details: post-emergence spray at 4-5 leaf stage, 250 g/ha active ingredient with 450 kg/ha water, rated after 3 weeks in greenhouse
Procedure, shortened: as §1

flixweed = assay: wheat field resistant broadleaf weed control, greenhouse spray at 4 leaf stage; design: key: Level 10: completely dead; Level 9: above 95% growth control rate; Level 8: above 90% growth control rate; Level 7: above 80% growth control rate; Level 6: above 70% growth control rate; Level 5: above 60% growth control rate; Level 4: above 50% growth control rate; Level 3: above 20% growth control rate; Level 2: 5%-20% growth control rate; Level 1: below 5% growth control rate; details: 250 g/ha of the active substance; 4 weeks after treatment; ALS inhibitor resistant
Protocol: (§2) The activity level standard of harmful plant destruction (i.e. growth control rate) is as follows:
(§3) The above described growth control rate is fresh weight control rate.
(§4) The seeds of alopecurus japonicas, flixweed, shepherd's purse, corn gromwell, chickweed, beckmannia syzigachne, and annual ryegrass and wheat seeds were put into a plastic pot loaded with soil, and then covered with 0.5-2 cm soil, the seeds were allowed to grow in good greenhouse environment. The test plants were treated at 4 leaf stage 2-3 weeks after sowing. The test compounds of the present invention were dissolved in acetone respectively, then added with methyl oleate emulsion and diluted by certain amount of water to certain concentration. The solution was sprayed to the plant with a sprayer. Then the plants were cultured for 4 weeks in greenhouse.

chickweed = assay: as above; design: key: Level 10: completely dead; Level 9: above 95% growth control rate; Level 8: above 90% growth control rate; Level 7: above 80% growth control rate; Level 6: above 70% growth control rate; Level 5: above 60% growth control rate; Level 4: above 50% growth control rate; Level 3: above 20% growth control rate; Level 2: 5%-20% growth control rate; Level 1: below 5% growth control rate; details: 250 g/ha of the active substance; 4 weeks after treatment; ALS inhibitor resistant
Protocol: as §2, §3, §4

shepherd's purse = assay: as above; design: key: Level 10: completely dead; Level 9: above 95% growth control rate; Level 8: above 90% growth control rate; Level 7: above 80% growth control rate; Level 6: above 70% growth control rate; Level 5: above 60% growth control rate; Level 4: above 50% growth control rate; Level 3: above 20% growth control rate; Level 2: 5%-20% growth control rate; Level 1: below 5% growth control rate; details: 250 g/ha of the active substance; 4 weeks after treatment; ALS inhibitor resistant
Protocol: as §2, §3, §4

corn gromwell = assay: as above; design: key: Level 10: completely dead; Level 9: above 95% growth control rate; Level 8: above 90% growth control rate; Level 7: above 80% growth control rate; Level 6: above 70% growth control rate; Level 5: above 60% growth control rate; Level 4: above 50% growth control rate; Level 3: above 20% growth control rate; Level 2: 5%-20% growth control rate; Level 1: below 5% growth control rate; details: 250 g/ha of the active substance; 4 weeks after treatment; ALS inhibitor resistant
Protocol: as §2, §3, §4

rorippa indica = assay: weed control effect in post-emergence stage (Table 1); design: key: Level 10: completely dead; Level 9: above 95% growth control rate; Level 8: above 90% growth control rate; Level 7: above 80% growth control rate; Level 6: above 70% growth control rate; Level 5: above 60% growth control rate; Level 4: above 50% growth control rate; Level 3: above 20% growth control rate; Level 2: 5%-20% growth control rate; Level 1: below 5% growth control rate; details: post-emergence spray at 4-5 leaf stage, 250 g/ha active ingredient with 450 kg/ha water, rated after 3 weeks in greenhouse
Procedure, shortened: as §1

echinochloa = assay: as above; design: key: Level 10: completely dead; Level 9: above 95% growth control rate; Level 8: above 90% growth control rate; Level 7: above 80% growth control rate; Level 6: above 70% growth control rate; Level 5: above 60% growth control rate; Level 4: above 50% growth control rate; Level 3: above 20% growth control rate; Level 2: 5%-20% growth control rate; Level 1: below 5% growth control rate; details: post-emergence spray at 4-5 leaf stage, 250 g/ha active ingredient with 450 kg/ha water, rated after 3 weeks in greenhouse
Procedure, shortened: as §1

bidens bipinnata = assay: as above; design: key: Level 10: completely dead; Level 9: above 95% growth control rate; Level 8: above 90% growth control rate; Level 7: above 80% growth control rate; Level 6: above 70% growth control rate; Level 5: above 60% growth control rate; Level 4: above 50% growth control rate; Level 3: above 20% growth control rate; Level 2: 5%-20% growth control rate; Level 1: below 5% growth control rate; details: post-emergence spray at 4-5 leaf stage, 250 g/ha active ingredient with 450 kg/ha water, rated after 3 weeks in greenhouse
Procedure, shortened: as §1

Indian mallow = assay: as above; design: key: Level 10: completely dead; Level 9: above 95% growth control rate; Level 8: above 90% growth control rate; Level 7: above 80% growth control rate; Level 6: above 70% growth control rate; Level 5: above 60% growth control rate; Level 4: above 50% growth control rate; Level 3: above 20% growth control rate; Level 2: 5%-20% growth control rate; Level 1: below 5% growth control rate; details: post-emergence spray at 4-5 leaf stage, 250 g/ha active ingredient with 450 kg/ha water, rated after 3 weeks in greenhouse
Procedure, shortened: as §1

crab grass = assay: as above; design: key: Level 10: completely dead; Level 9: above 95% growth control rate; Level 8: above 90% growth control rate; Level 7: above 80% growth control rate; Level 6: above 70% growth control rate; Level 5: above 60% growth control rate; Level 4: above 50% growth control rate; Level 3: above 20% growth control rate; Level 2: 5%-20% growth control rate; Level 1: below 5% growth control rate; details: post-emergence spray at 4-5 leaf stage, 250 g/ha active ingredient with 450 kg/ha water, rated after 3 weeks in greenhouse
Procedure, shortened: as §1

foxtail = assay: as above; design: key: Level 10: completely dead; Level 9: above 95% growth control rate; Level 8: above 90% growth control rate; Level 7: above 80% growth control rate; Level 6: above 70% growth control rate; Level 5: above 60% growth control rate; Level 4: above 50% growth control rate; Level 3: above 20% growth control rate; Level 2: 5%-20% growth control rate; Level 1: below 5% growth control rate; details: post-emergence spray at 4-5 leaf stage, 250 g/ha active ingredient with 450 kg/ha water, rated after 3 weeks in greenhouse
Procedure, shortened: as §1

wheat [2] = assay: wheat field test, crop selectivity, greenhouse spray at 4 leaf stage; details: 250 g/ha of the active substance; 4 weeks after treatment
Procedure, shortened: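 Seeds sown in soil-filled pots, covered 0.5-2 cm, greenhouse-grown; sprayed at 4 leaf stage (2-3 wk); acetone/methyl oleate emulsion/water formulation; 4 wk greenhouse; fresh wt control rate.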

rice = assay: post-emergence stage experiment, crop (Table 1); design: key: Level 10: completely dead; Level 9: above 95% growth control rate; Level 8: above 90% growth control rate; Level 7: above 80% growth control rate; Level 6: above 70% growth control rate; Level 5: above 60% growth control rate; Level 4: above 50% growth control rate; Level 3: above 20% growth control rate; Level 2: 5%-20% growth control rate; Level 1: below 5% growth control rate; details: post-emergence spray at 4-5 leaf stage, 250 g/ha active ingredient with 450 kg/ha water, rated after 3 weeks in greenhouse
Procedure, shortened: as §1

Structure (SMILES)	effect on crop, Wheat (level) (wheat [1])	effect on crop, Corn (level) (corn)	flixweed weed controlling effect (activity level) (flixweed)	chickweed weed controlling effect (activity level) (chickweed)	shepherd's purse weed controlling effect (activity level) (shepherd's purse)	corn gromwell weed controlling effect (activity level) (corn gromwell)	weed control effect, Rorippa indica (level) (rorippa indica)	weed control effect, Echinochloa (level) (echinochloa)	weed control effect, Bidens bipinnata (level) (bidens bipinnata)	weed control effect, Indian mallow (level) (Indian mallow)	weed control effect, Crab grass (level) (crab grass)	weed control effect, Green foxtail (level) (foxtail)	Wheat (activity level, crop damage) (wheat [2])	effect on crop, Rice (level) (rice)
Cc1cnn(-c2c(C(F)(F)F)ccc(C(=O)c3cnn(C)c3OC(=O)c3cn(C)nc3C)c2Cl)c1 [Compound 082]	0	3 (Level 3: above 20% growth control rate)	10	10	10	10	10	10	4 (Level 4: above 50% growth control rate)	9 (Level 9: above 95% growth control rate)	6 (Level 6: above 70% growth control rate)	10	0	3 (Level 3: above 20% growth control rate)
CCOc1c(C(=O)Oc2c(C(=O)c3ccc(C(F)(F)F)c(-n4cc(C)cn4)c3Cl)c(C)nn2C)cnn1C [Compound 086]	0	0	10	10	10	10	10	5 (Level 5: above 60% growth control rate)	6 (Level 6: above 70% growth control rate)	10	4 (Level 4: above 50% growth control rate)	2 (Level 2: 5%-20% growth control rate)	0	2 (Level 2: 5%-20% growth control rate)
CCn1ncc(C(=O)c2ccc(C(F)(F)F)c(N3CCCC3=O)c2Cl)c1O [Compound 096]	1 (Level 1: below 5% growth control rate)	0	10	10	10	10	10	10	10	10	5 (Level 5: above 60% growth control rate)	10	1 (Level 1: below 5% growth control rate)	9 (Level 9: above 95% growth control rate)
CCc1nn(C)c(OC(=O)c2cn(C)nc2C)c1C(=O)c1ccc(C(F)(F)F)c(N2CCCCC2=O)c1Cl [Compound 111]	1 (Level 1: below 5% growth control rate)	1 (Level 1: below 5% growth control rate)	10	10	10	10	10	10	4 (Level 4: above 50% growth control rate)	10	3 (Level 3: above 20% growth control rate)	2 (Level 2: 5%-20% growth control rate)	1 (Level 1: below 5% growth control rate)	10
